Results as given in patent US5801191A, “Taxoids” (Biophysica Foundation, priority 1995, dated 1998).
“Also recorded” adds a separate entry of the source.

Columns and labels:
Molt-4 T-cell Leukemia = conditions: molt-4 cells
[1] = system: panel of human tumor cell lines; assay: Cytotoxic activity in a panel of human tumor cell lines as compared to paclitaxel
[2] = system: Ln-Cap Prostate Carcinoma; conditions: lncap cells
[3] = system: DU-145 Prostate Carcinoma; conditions: du-145 cells
[4] = system: Ovcar-3 Ovarian Carcinoma; conditions: ovcar-3 cells
[5] = Water solubility / formulation in aqueous vehicles
MCF-7 Breast Carcinoma = conditions: mcf-7 cells
PC-3 Prostate Carcinoma = conditions: pc-3 cells
[6] = system: PC-3 human prostate tumor; assay: In vivo efficacy against established PC-3 human prostate tumor in athymic nude mice
Excerpt: Example 11. In vivo efficacy of Taxoid BP-193

[7] = background; cited from earlier work
[8] = Physician's Desk Reference (1994) 670, cited from earlier work

| Compound | IC50 (Molt-4 T-cell Leukemia) [nM] | cytotoxic activity as compared to paclitaxel [1] | IC50 [2] [nM] | IC50 [3] [nM] | IC50 [4] [nM] | formulation in aqueous vehicles [5] | water solubility as compared with paclitaxel [5] | IC50 (MCF-7 Breast Carcinoma) [nM] | IC50 (PC-3 Prostate Carcinoma) [nM] | toxicity as compared with paclitaxel ([6]; PC-3 tumor-bearing mice) | tumor regression ([6]; all mice treated with BP-193) | anti-cellular proliferative activity, as measured by the reduction in tumor growth ([6]; established PC-3 tumor, vs vehicle and Taxol control) | side effects (hypersensitivity, myelosuppression, neuropathy, alopecia, cardio-toxicity) [7] | plasma concentration following infusion [8] | mean steady state volume of distribution ([8]; following infusion) [LIm^2] |
| --- | --- | --- | --- | --- | --- | --- | --- | --- | --- | --- | --- | --- | --- | --- | --- |
| CC(=O)O[C@H]1C(=O)[C@]2(C)[C@@H](OC(=O)OCC(O)CO)C[C@H]3OC[C@@]3(OC(C)=O)[C@H]2[C@H](OC(=O)c2ccccc2)[C@]2(O)C[C@H](OC(=O)[C@H](OC(=O)OCC(O)CO)[C@@H](NC(=O)c3ccccc3)c3ccccc3)C(C)=C1C2(C)C (stereo partly shown) [BP-177, 2',7-di(2",3"-dihydroxypropylcarbonoxy)paclitaxel] | 703 | comparable cytotoxic activity to paclitaxel | 27.1 | 91.4 | 50 | readily formulated in standard aqueous vehicles | more water soluble than paclitaxel | 335 | 57.3 |  |  |  |  |  |  |
| CC(=O)O[C@H]1C(=O)[C@@]2(C)[C@H]([C@H](OC(=O)c3ccccc3)[C@]3(O)C[C@H](OC(=O)[C@H](OC(=O)OCCC(O)CO)[C@@H](NC(=O)c4ccccc4)c4ccccc4)C(C)=C1C3(C)C)[C@]1(OC(C)=O)CO[C@@H]1C[C@@H]2O (stereo partly shown) [BP-193, 2'-(3^11,4"-dihydroxybutyl-carbonoxy)paclitaxel] | 3.97 | cytotoxic activity equal to, or greater than, paclitaxel | 19.5 | 1.4 | 55 | readily formulated in standard aqueous vehicles | more water soluble than paclitaxel | 8.65 | 1550 | lacking the toxicity of paclitaxel | all tumors regressed to pretreatment levels | significant anti-cellular proliferative activity |  |  |  |
| CC(=O)O[C@H]1C(=O)[C@@]2(C)[C@H]([C@H](OC(=O)c3ccccc3)[C@]3(O)C[C@H](OC(=O)[C@H](OC(=O)OCC(O)CO)[C@@H](NC(=O)c4ccccc4)c4ccccc4)C(C)=C1C3(C)C)[C@]1(OC(C)=O)CO[C@@H]1C[C@@H]2O (stereo partly shown) [BP-171, 2'-(2",3"-dihydroxypropylcarbonoxy)paclitaxel] |  | cytotoxic activity equal to, or greater than, paclitaxel |  |  |  | readily formulated in standard aqueous vehicles | more water soluble than paclitaxel; also recorded: enhanced water solubility as compared with paclitaxel |  |  |  |  |  |  |  |  |
| CC(=O)O[C@H]1C(=O)[C@]2(C)[C@@H](OC(=O)OCC(O)CO)C[C@H]3OC[C@@]3(OC(C)=O)[C@H]2[C@H](OC(=O)c2ccccc2)[C@]2(O)C[C@H](OC(=O)[C@H](O)[C@@H](NC(=O)c3ccccc3)c3ccccc3)C(C)=C1C2(C)C (stereo partly shown) [BP-179, 7-(2",3"-dihydroxypropylcarbonoxy)paclitaxel] | 199 |  | 20.5 | 20.5 | 50 |  |  | 815 | 3.24 |  |  |  |  |  |  |
| CC(=O)O[C@H]1C(=O)[C@@]2(C)[C@H]([C@H](OC(=O)c3ccccc3)[C@]3(O)C[C@H](OC(=O)[C@H](OC(=O)NCC(O)CO)[C@@H](NC(=O)c4ccccc4)c4ccccc4)C(C)=C1C3(C)C)[C@]1(OC(C)=O)CO[C@@H]1C[C@@H]2O (stereo partly shown) [BP-174, 2'-(2",3"-dihydroxypropylcarbamoxy) paclitaxel] |  | comparable cytotoxic activity to paclitaxel |  |  |  | readily formulated in standard aqueous vehicles | more water soluble than paclitaxel; also recorded: enhanced water solubility as compared with paclitaxel |  |  |  |  |  |  |  |  |
| CC(=O)O[C@H]1C(=O)[C@]2(C)[C@@H](OC(=O)NCCN3C(=S)N(c4ccc(C#N)c(C(F)(F)F)c4)C(=O)C3(C)C)C[C@H]3OC[C@@]3(OC(C)=O)[C@H]2[C@H](OC(=O)c2ccccc2)[C@]2(O)C[C@H](OC(=O)[C@H](O)[C@@H](NC(=O)c3ccccc3)c3ccccc3)C(C)=C1C2(C)C [BP-196, 7-[imidazolidinyl-5", 5"-dimethyl-4"-oxo-3"-[(4"'-cyano-3"'-trifluoromethyl)phenyl]-2"-thioxo-1"ethylcarbamoxy]paclitaxel] |  | comparable cytotoxic activity to paclitaxel |  |  |  | readily formulated in standard aqueous vehicles | more water soluble than paclitaxel |  |  |  |  |  |  |  |  |
| CC(=O)O[C@H]1C(=O)[C@@]2(C)[C@H]([C@H](OC(=O)c3ccccc3)[C@]3(O)C[C@H](OC(=O)[C@H](O)[C@@H](NC(=O)c4ccccc4)c4ccccc4)C(C)=C1C3(C)C)[C@]1(OC(C)=O)CO[C@@H]1C[C@@H]2O [Taxol, paclitaxel, reference compound] |  |  | 1.5 | 2.12 | 2.24 |  |  | 5 |  |  |  |  | about 30 % of patients | rapidly declines following infusion | 42 to 162 |
